The values below come from US20110105380A1, “Protection of Nano-Scale Particles from Immune Cell Uptake” (THE TRUSTEES OF THE UNIVERSITY OF PENNSYLVANIA, priority 2009, published 2011).

For experiment [1], the target named is SHP-1 (Homo sapiens, UniProt P29350). To be noted: Chen et al., 2006; read-out: reported IC50 for SHP-1; cited from earlier work.
Experiment [2] has as its system THP-1 macrophages. Nature of the experiment: SHP-1 inhibitor effect on phagocytosis of IgG-opsonized particles by THP-1 macrophages. The format is cell-based, human. Here is the method:
FIG. 16, comprising FIG. 16A-16D, illustrates CD47-SIRPα signaling pathway from SHP-1 to myosin. Phagocytosis of IgG-opsonized particles with or without human CD47 of 100 nm particles (FIG. 16A) and 1.1 μm particles (FIG. 16B) were treated with an SHP-1 inhibitor (NSC-87877) at 62.5 nM and its effects were determined by the ratio of ingested particles per THP-1 phagocyte. The number of particles ingested was shown based on 200 phagocytes counted (n≧3, ±SD). The inset depicts the concentration dependence of NSC-87877 effect on particle uptake. Treatment of blebbistatin in THP-1 macrophages during phagocytosis of IgG-opsonized 100 nm particles (FIG. 16C) and 1.1 μm particles (FIG. 16D) depict inhibition of phagocytosis.
For phagocytosis assays with CD47 attached particles at 100 nm to 1.1 μm diameter were IgG-opsonized. THP-1 macrophage, PMA activated were treated with 0-0.5 μM NSC-87877 an SHP-1 Inhibitor (gift from Frank L. Conlon) 5 minutes prior to the addition of IgG-opsonized particles. Phagocytosis assay occurred at 37° C. for 45 minutes and then fixed for 5 minutes with 5% formaldehyde as described for the phagocytosis assay (Fisher Scientific).
To confirm the correlation between CD47 affect on inhibiting phagocytosis of both nano and micro sized particles, blocked SHP-1 should result in nullifying the CD47 signal. In order to specifically block SHP-1, an inhibitor NSC-87877 was used with a reported high specificity to SHP-1 (Chen et al., 2006, Mol. Pharmacol. 70(2):562-70; Langdon et al., 2007, Development 134(22):4119-30). […] The uptake of these particles was measured as the number of particles ingested per phagocyte.

For experiment [3], the target named is human CD47 on human red blood cells (human) (UniProt Q08722). Nature of the experiment: cell-based or functional assay.
Experiment [4] addresses THP-1 macrophages. Nature of the experiment: Phagocytosis of IgG-opsonized streptavidin beads with or without hCD47 by THP-1 macrophages. The format is cell-based, human. Particulars: for Ki (minimum hCD47 density to inhibit uptake): IgG-opsonized. The method, then:
The extracellular immunoglobulin-like domains of human CD47 (hCD47) was recombinantly expressed with a spacer domain (Brown et al., 1994, Protein Eng. 7:515-21; Brown et al., 1998, J. Exp. Med. 188:2083-90) plus a C-terminal biotinylation site. […] The beads were opsonized by pretreatment with anti-streptavidin to again induce FcR-mediated phagocytosis (for 45 minutes at 37° C.), and non-engulfed beads were detected with a flourescein anti-Fc against the IgG-opsonin. The number of adherent IgG-opsonized beads per phagocyte was independent of hCD47 (not shown).
For phagocytosis assays, macrophages were plated in 4 cm^2, or 2 cm^2 Lab-Tek II Chambered Coverglass (Nalge Nunc International, Naperville, Ill.) at 1.5×10^5/cm^2. Streptavidin polystyrene beads of different radius: 3.5 μm, 1.1 μm, 160 nm (Spherotech) and 100 nm (Ademtech) were added to macrophages at a ratio of 2:1, 20:1, 277:1, and 2206:1 respectively and incubate at 37° C. for 45 min. […] Non-phagocytosed beads were washed with PBS. Cells were fixed with 5% formaldehyde (Fisher Scientific) for 5 minutes, followed by immediate replacement with PBS. For differentiation of non-internalized beads, beads were labeled with a primary antibody, rabbit anti-streptavidin (Sigma) at 1:1000 in PBS for 20 min at 25° C. A second antibody, anti-rabbit R-PE (Sigma) was added at 1:1000 in PBS to the cells and incubated for an additional 20 minutes at 25° C. Cells were then washed with PBS/0.4% BSA and then quantified by light and fluorescent microscopy. At least 200 cells were scored per well and experiments were repeated at least three times.
For stimulated phagocytosis assays, beads with or without CD47 were incubated with rabbit anti-streptavidin as the IgG opsonin. Beads were opsonized at a concentration 1:1000 for 30 min at 25° C. Opsonized beads were washed 2× and resuspended in 50 μl of PBS/0.4% BSA. Phagocytes were washed with PBS and uningested beads were labeled as described above.
For cytoskeletal involvement at the phagocytic synapse, streptavidin beads opsonized with rabbit anti-streptavidin FITC. Opsonized beads of different sizes were added to THP-1 cells, PMA treated and immediately placed at 4° C. for 10 min to synchronize phagocytosis. […] For studies involving blebbistatin (EMD Biosciences), macrophages were treated for 10 min at 4° C. prior to temperature increase to 37° C. or for 45 min and 37° C. Macrophages treated with DMSO were used to verify no solvent effects.
Beads were opsonized at saturating densities of IgG, and over a 20-fold range of CD47 densities, the number of internalized beads per THP-1 was measured. […] The normal level of CD47 density found on human RBC (Subramanian et al., 2006, Blood 107(6):2548-2556) was indicated by the vertical bars and humans with certain Rhnull phenotypes with reduced levels of CD47 (Mouro-Chanteloup et al., 2003, Blood 101 (1):338-344; Arndt et al., 2004, Br. J. Haematol. 125(3):412-4) was indicated by the vertical bars. The minimum number of CD47 inhibition appears to be consistent across a 30-fold particle size range as depicted by the vertical bars.

For experiment [5], the target named is THP-1 macrophages. The experiment is described as above. It is filed as cell-based, human. Particulars: particle radius 3.4 μm.
Experiment [6] relates to human peripheral blood monocytes. Nature of the experiment: Phagocytosis of hCD47 beads by human peripheral blood monocytes. It is filed as cell-based. Particulars: FIG. 6D. The method, then: FIG. 6, comprising […], illustrates that human-CD47 is sufficient to inhibit phagocytosis. FIG. 6A depicts streptavidin beads coated with both anti-streptavidin IgG as the opsonin and biotinylated human-CD47. Phagocytosis of beads by THP-1 cells was assessed in DIC and fluorescence with non-ingested beads visible with rabbit anti-streptavidin plus a second, goat anti-rabbit antibody. The scale bars are 10 μm. […] Inset bar graph compares to inhibited phagocytosis of uncoated beads after 10 min pretreatment of THP-1 cells with blebbistatin (50 μM). FIG. 6C depicts inhibition of phagocytosis depends on density of human-CD47 on beads. FIG. 6D depicts a bar graph comparing hCD47 inhibition of phagocytosis in peripheral blood monocytes.
The extracellular immunoglobulin-like domains of human CD47 (hCD47) was recombinantly expressed with a spacer domain (Brown et al., 1994, Protein Eng. 7:515-21; Brown et al., 1998, J. Exp. Med. 188:2083-90) plus a C-terminal biotinylation site. […] The beads were opsonized by pretreatment with anti-streptavidin to again induce FcR-mediated phagocytosis (for 45 minutes at 37° C.), and non-engulfed beads were detected with a flourescein anti-Fc against the IgG-opsonin. The number of adherent IgG-opsonized beads per phagocyte was independent of hCD47 (not shown). […]

[7] abbreviates: 100 nm particles, NSC-87877 62.5 nM.

Values joined by “and” are separate entries in the source; they are usually repeats but may differ in a detail not shown here. Equal values may be shown once. Marks after values point to notes of the source that are not given here.

human CD47 on human red blood cells (human), sequence (Q08722 other isoform, or with tags, fused parts or gaps limits assumed): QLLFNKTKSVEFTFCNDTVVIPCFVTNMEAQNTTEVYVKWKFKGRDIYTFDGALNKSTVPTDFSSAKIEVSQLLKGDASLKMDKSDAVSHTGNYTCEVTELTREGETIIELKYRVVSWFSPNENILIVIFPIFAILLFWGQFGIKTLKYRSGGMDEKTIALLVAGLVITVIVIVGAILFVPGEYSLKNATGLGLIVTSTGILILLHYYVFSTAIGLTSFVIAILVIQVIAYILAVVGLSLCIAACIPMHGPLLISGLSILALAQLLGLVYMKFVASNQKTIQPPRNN
SHP-1, sequence (P29350 whole entry): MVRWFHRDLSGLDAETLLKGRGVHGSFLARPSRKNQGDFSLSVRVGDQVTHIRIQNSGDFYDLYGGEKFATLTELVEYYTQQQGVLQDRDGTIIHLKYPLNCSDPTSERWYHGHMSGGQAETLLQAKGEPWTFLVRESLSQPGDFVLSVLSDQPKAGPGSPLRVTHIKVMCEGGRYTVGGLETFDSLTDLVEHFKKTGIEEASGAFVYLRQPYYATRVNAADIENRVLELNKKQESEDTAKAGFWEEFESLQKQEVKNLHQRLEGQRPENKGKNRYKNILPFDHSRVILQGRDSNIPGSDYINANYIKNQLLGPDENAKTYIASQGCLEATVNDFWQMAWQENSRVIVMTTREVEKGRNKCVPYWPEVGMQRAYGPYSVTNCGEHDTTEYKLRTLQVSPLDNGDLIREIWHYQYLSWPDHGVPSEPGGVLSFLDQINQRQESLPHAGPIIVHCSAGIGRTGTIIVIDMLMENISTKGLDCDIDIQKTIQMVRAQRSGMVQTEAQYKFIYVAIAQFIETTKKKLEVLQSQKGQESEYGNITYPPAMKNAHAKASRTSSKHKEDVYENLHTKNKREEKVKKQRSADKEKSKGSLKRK

For the molecule `O=S(=O)(O)c1ccc2cc(N=Nc3cc(S(=O)(=O)O)c4cccnc4c3O)ccc2c1` [NSC-87877], in experiment [1], the half-inhibitory concentration (IC50) is 500 nM. In addition, in experiment [2] (setting [7]), the “particles ingested per phagocyte, beads without hCD47” value is recorded as “no statistical difference” and the “particles ingested per phagocyte, hCD47 particles” value is recorded as “an increase of ingested particles”. The “uptake of 1.1 μm particles coated with hCD47” value in experiment [2] (NSC-87877, FIG. 16B) was “increase in uptake comparable to uncoated IgG-opsonized particles”.
For “anti-CD47 F(ab')2 generated from monoclonal antibody B6H12”, the phagocytosis of IgG-opsonized human RBCs by human phagocytes after CD47 blocking in experiment [3] is 2 fold and 3 fold.
For the molecule “hCD47: extracellular immunoglobulin-like domains of human CD47 recombinantly expressed with a spacer domain plus C-terminal biotinylation site, attached to streptavidin-coated beads”, the “effective Ki of phagocytosis inhibition” value in experiment [4] (all particle sizes tested, micro to nano-meter beads (100 nm to 3.5 μm)) is “approximately 20 molecules/μm^2”; in experiment [4] (all particle sizes tested, micro to nano-meter beads (100 nm to 3.5 μm), listed as human CD47) it was ~20 molecules/μm^2; in experiment [4] (approximately 2.1 μm beads, FIG. 6C), “≈ 20 molecules/μm^2”. For the same molecule, the “Ki at high opsonin” value in experiment [4] (beads opsonized at saturating densities of IgG) was determined as 20 CD47/μm^2. The “Ki (minimum hCD47 density to inhibit uptake)” value in experiment [4] (particle radius 1.1 μm) is recorded as 20* molecules/μm^2; in experiment [4] (particle radius 100 nm), 19.9 molecules/μm^2; in experiment [4] (particle radius 160 nm), 13.6 molecules/μm^2; in experiment [5], 27.6 molecules/μm^2. The “fraction of normal CD47 densities sufficient to inhibit phagocytosis” value in experiment [4] (relative to normal human RBC density) is on record as 10-20%. Besides, in experiment [6], the “phagocytosis of beads bearing high densities of hCD47” value was “similarly potent reduction in phagocytosis”.

A word on the IC50: it is the concentration that inhibits the measured activity by half.
